The target in the assay is T1, YgjG (Escherichia coli, UniProt P42588).
T1 construct: gene patA; full-length, C-terminal His6 tag, expressed in E. coli B834(DE3); homodimer; seven N-terminal and one C-terminal residues not visible
The assay is described as follows: X-ray crystallography, […] Å. To be noted: crystal pH 7.5; covalent, Schiff base with Lys300; active site at dimer interface. Type of assay: binding.

T1 sequence (P42588 whole entry): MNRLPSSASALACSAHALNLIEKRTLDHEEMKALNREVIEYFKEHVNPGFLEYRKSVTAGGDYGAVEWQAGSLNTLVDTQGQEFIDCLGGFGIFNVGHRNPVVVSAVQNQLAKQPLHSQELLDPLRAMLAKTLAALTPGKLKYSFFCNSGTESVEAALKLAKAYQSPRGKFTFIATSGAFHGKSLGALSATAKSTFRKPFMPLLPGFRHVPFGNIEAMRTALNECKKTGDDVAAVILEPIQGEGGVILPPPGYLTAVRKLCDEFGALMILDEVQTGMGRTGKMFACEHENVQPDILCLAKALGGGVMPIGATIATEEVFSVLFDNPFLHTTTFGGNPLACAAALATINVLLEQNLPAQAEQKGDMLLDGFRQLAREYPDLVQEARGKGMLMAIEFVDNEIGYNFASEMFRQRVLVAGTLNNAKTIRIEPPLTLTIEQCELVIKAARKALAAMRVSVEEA

Consider `Cc1ncc(COP(=O)(O)O)c(C=O)c1O` [pyridoxal-5′-phosphate], for which the “X-ray crystallography, 2.3 Å” value is “PLP is covalently linked to the strictly conserved lysine residue (Lys300) via a Schiff base linkage”.

The record behind these values is article PMC4244111, “Structure of Putrescine Aminotransferase from Escherichia coli Provides Insights into the Substrate Specificity among Class III Aminotransferases” (PLoS ONE, 2014).
